Test results as given in patent US6949533B2, “6,7-Oxygenated steroids and uses related thereto” (Inflazyme Pharmaceuticals Ltd., priority 1996, dated 2005).

Columns and labels:
[1] = tested on: passively sensitized rat mast cells (RBL-2H3); assay: antigen-induced release of hexosaminidase from RBL-2H3 cells; assay type: cell-based; conditions: antigen-induced hexosaminidase release
Protocol: (§1) The anti-allergic effects of various polyhydroxylated steroids of the present invention were evaluated by measuring their effect on antigen-induced secretion of hexosaminidase from a passively sensitized rat mast cell line (RBL-2H3) and a murine mast cell line (MC/9). The ability of agents to inhibit the release of mast cell granule contents, e.g., histamine and hexosaminidase, is indicative of anti-allergy and/or anti-asthma activity.
(§2) Hexosaminidase is released from the mast cell granule along with histamine and other mediators during antigen challenge. RBL-2H3 and MC/9 cells were grown in culture and passively sensitized to dinitrophenol (DNP) using anti-human-DNP (IgE). Cells were incubated with each compound (25 μM) for 1 hour at 37° C. and then stimulated with 0.1 mg/ml DNP-HSA (antigen) for 15 min. Aliquots of the supernatant were removed and used to measure the amount of hexosaminidase released during challenge with the antigen. The amount of hexosaminidase present in the supernatant was determined calorimetrically by monitoring the enzymatic metabolism of p-nitrophenyl-N-acetyl-β-D-glucosaminide (p-NAG) over a period of 1 hour at 410 nm. The effect of each compound was determined as a percentage of the antigen-induced response (minus background release) obtained in the presence of DMSO alone, as set forth in Tables 2 and 3. These values were used to determine the degrees of inhibition of antigen-induced hexosaminidase release from the cells.

[2] = tested on: sensitized guinea pigs; assay: allergen-induced changes in lung resistance and compliance in vivo; set-up: species or system guinea pig; conditions: 5 mg/kg/day for 4 days p.o.
Protocol: Female Cam Hartley guinea pigs (350-400 g) are sensitized to ovalbumin by exposure of the guinea pigs to a nebulized solution of 1% ovalbumin in saline for 15 minutes. After 10-12 days, the animals are found to be acutely sensitized to the allergen (ovalbumin). Animals are treated by oral gavage, under light halothane anesthesia, with 300 μl polyethyleneglycol-200 (PEG) or 5 mg/Kg of test compound in 300 μl of PEG. Animals are treated once daily for 4 days with the final dose administered 2 hours prior to allergen challenge. Alternatively, compounds were delivered by inhalation, using a Hudson nebulizer driven by 6 psi oxygen, providing a single dose of 50 μg/Kg 20 min prior to challenge.
An animal is anaesthetized using ketamine ([…]; i.p.) and xylazine (10 mg/Kg; i.p.) and 1% halothane during the surgical procedure. A tracheostomy is performed and a water-filled esophageal cannula is inserted prior to positioning the animal in a body plethysmograph. The tracheal cannula is attached to a fixed tracheal cannula in the plethysmograph. Cardiac function is monitored using electrocardiography. The animal is paralyzed using pancuronium bromide (0.8 mg/Kg; i.m.) and ventilated with 3 ml tidal breaths using a Harvard small animal ventilator, at a frequency of 60 breaths per minute. Pulmonary resistance and dynamic lung compliance data are obtained from volume, flow and transpulmonary pressure signals using multipoint analysis.
Pulmonary function is continually monitored throughout the experiment and measurements of lung resistance and lung compliance are made at various time-points (e.g., 0, 1, 2, 3, 4, 5, 10, 20 and 30 min) following antigen challenge. Data is collected on a computer-linked physiological measurement system using DIREC Physiological recording software and analyzed using ANADAT software designed for lung mechanics measurements. This software was obtained from RHT-InfoDat Inc., Montreal, Quebec, Canada.
Once baseline resistance and compliance measurements are obtained, the animal is challenged with 6 breaths of saline. After 10 minutes, during which time no alterations in lung function should occur, the animal is challenged with 6 breaths of 2 or 3% ovalbumin in saline (as the antigen stimulus). Saline and antigen are delivered in each breath using a Hudson nebulizer.

[3] = tested on: NF-κB; assay: NF-κB gel shift binding assay in TPA-stimulated RBL-2H3 cells; assay type: cell-based; conditions: Rattus norvegicus, compound 1 μM, 2 hours preincubation, read-out: Percent Inhibition of Response to TPA (0.1 μM)
[4] = tested on: guinea pig ileum; assay: antigen-induced contraction of ileum from sensitized guinea pigs; conditions: Cavia porcellus, read-out: Percentage Inhibition, 30 μM compound, n = 3-4
Protocol: The ability of compounds to inhibit allergen-induced contraction of ileum from sensitized animals is indicative of antiallergic activity. Sensitized guinea pig ileum is particularly useful in measuring the immediate allergic response.
The guinea pig ileum has been used to evaluate the ability of compounds to inhibit allergan-induced histamine and mediator release causing smooth muscle contraction. Guinea pigs were sensitized by an intraperitoneal injection of 100 mg ovalbumin and an intramuscular injection of 50 mg ovalbumin on day 0, followed by a second intramuscular injection of 50 mg ovalbumin on day 1. […] Segments of ileum were prepared and suspended, with muscle contractions being measured in the longitudinal plane, in Tyrode's buffer at 37° C. and aerated with 5% CO2 in O2. Tissues were suspended under a resting tension of 2 grams and isometric contractions were measured using force-displacement transducers coupled to a polygraph. Tissues were stimulated with 3 μM histamine 3 times to ensure reproducible contractions were obtained. Tissues were then incubated with each compound (30 μM) or 0.15% dimethylsulphoxide (DMSO) as a control, for 20 min, after which time the tissues were challenged with 100 μg/ml ovalbumin. The magnitude of the contraction induced by OA in the presence of each compound was expressed as a percentage of the contraction obtained to 3 μM histamine. The protective effects of the various compounds on OA-induced contraction of guinea pig ileum from sensitized animals are summarized in Table 4.

[5] = tested on: mouse mast cells (MC/9); assay: antigen-induced release of hexosaminidase from MC/9 cells; assay type: cell-based
Protocol: as §1, §2

CC[C@H]1CCC2C3C(CC[C@@]21C)[C@@]1(C)CC[C@@H](O)CC1[C@@H](O)[C@@H]3O (some centres unmarked) [Compound 339]
Percentage Inhibition (mean) RBL-2H3 Cells ([1]; 25 μM compound, 25 µM): 76%
inhibition at 25 µM ([1]; Rattus norvegicus, RBL-2H3, 25 μM compound, read-out: Percentage Inhibition (mean) RBL-2H3 Cells): 79%
Lung Compliance ([2]; 1 min after challenge): 0.172 ± 0.027 ml/cm H2O
Lung Resistance ([2]; 1 min after challenge): 0.326 ± 0.041 cm H2O/ml/sec
Lung Compliance ([2]; 2 min after challenge): 0.088 ± 0.018 ml/cm H2O
Lung Resistance ([2]; 2 min after challenge): 0.522 ± 0.187 cm H2O/ml/sec
Lung Compliance ([2]; 3 min after challenge): 0.060 ± 0.017 ml/cm H2O
Lung Resistance ([2]; 3 min after challenge): 1.102 ± 0.047 cm H2O/ml/sec
Lung Compliance ([2]; 4 min after challenge): 0.050 ± 0.013 ml/cm H2O
Lung Resistance ([2]; 4 min after challenge): 0.996 ± 0.380 cm H2O/ml/sec
Lung Compliance ([2]; 5 min after challenge): 0.051 ± 0.011 ml/cm H2O
Lung Resistance ([2]; 5 min after challenge): 1.014 ± 0.413 cm H2O/ml/sec
Lung Compliance ([2]; 10 min after challenge): 0.084 ± 0.012 ml/cm H2O
Lung Resistance ([2]; 10 min after challenge): 0.440 ± 0.099 cm H2O/ml/sec
Lung Compliance ([2]; 20 min after challenge): 0.123 ± 0.015 ml/cm H2O
Lung Resistance ([2]; 20 min after challenge): 0.296 ± 0.031 cm H2O/ml/sec
Lung Compliance ([2]; 30 min after challenge): 0.150 ± 0.012 ml/cm H2O
Lung Resistance ([2]; 30 min after challenge): 0.291 ± 0.037 cm H2O/ml/sec
Lung Compliance ([2]; Baseline): 0.463 ± 0.026 ml/cm H2O
Lung Resistance ([2]; Baseline): 0.249 ± 0.017 cm H2O/ml/sec
Lung Compliance ([2]; OA/10 s): 0.442 ± 0.025 ml/cm H2O
Lung Resistance ([2]; OA/10 s): 0.239 ± 0.013 cm H2O/ml/sec
inhibition at 1 µM [3]: 65%
inhibition at 30 µM [4]: 40.6%
Percentage Inhibition (mean) MC/9 cells ([5]; 25 μM compound, 25 µM): 55%
inhibition at 25 µM ([5]; Mus musculus, MC9, 25 μM compound, read-out: Percentage Inhibition (mean) MC/9 cells): 67%
